≈ marks a conversion by molar mass, not a printed value.
What was measured:
Experiment in all cases: in vitro antibacterial evaluation, MIC by broth dilution
Format in all cases: cell-based
Escherichia coli = conditions: 18 hours at 35° C.
Enterococcus sp. = conditions: broth dilution, 18 hours at 35° C.
In short: (§1)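 MIC = lowest antibiotic concentration preventing visible growth; inoculum 5×10^5 CFU/mL; drug range 64-0.06 μg/mL; Muller-Hinton II […]; NCCLS M7-A2 guidance.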

Streptococcus sp. = conditions: broth dilution, 18 hours at 35° C.
In short: as §1

Staphylococcus sp. = conditions: broth dilution, 18 hours at 35° C.
In short: as §1

MIC Escherichia coli (ATCC 25922) (Escherichia coli): 32 µg/mL (≈ 22.6 µM)
MIC Escherichia coli (GC 4559) (Escherichia coli): 32 µg/mL (≈ 22.6 µM)
MIC Escherichia coli (GC 4560) (Escherichia coli): 2 µg/mL (≈ 1.41 µM)
MIC Enterococcus avium (GC 4558) (Enterococcus sp.): 4 µg/mL (≈ 2.83 µM)
MIC Enterococcus faecalis (ATCC 29212) (Enterococcus sp.): 8 µg/mL (≈ 5.65 µM)
MIC Enterococcus faecalis (GC 2242) (Enterococcus sp.): 8 µg/mL (≈ 5.65 µM)
MIC Enterococcus faecalis (GC 2691) (Enterococcus sp.): 8 µg/mL (≈ 5.65 µM)
MIC Enterococcus faecalis (GC 3059) (Enterococcus sp.): 8 µg/mL (≈ 5.65 µM)
MIC Enterococcus faecalis (GC 4552) (Enterococcus sp.): 8 µg/mL (≈ 5.65 µM)
MIC Enterococcus faecalis (GC 4553) (Enterococcus sp.): 8 µg/mL (≈ 5.65 µM)
MIC Enterococcus faecalis (GC 4554) (Enterococcus sp.): 8 µg/mL (≈ 5.65 µM)
MIC Enterococcus faecalis (GC 6189) (Enterococcus sp.): 8 µg/mL (≈ 5.65 µM)
MIC Enterococcus faecium (GC 2243) (Enterococcus sp.): 8 µg/mL (≈ 5.65 µM)
MIC Enterococcus faecium (GC 4556) (Enterococcus sp.): 8 µg/mL (≈ 5.65 µM)
MIC Enterococcus faecium (GC 4557) (Enterococcus sp.): 4 µg/mL (≈ 2.83 µM)
MIC Enterococcus faecalis (ATCC 29212) (Enterococcus sp.; inoculum 5×10^5 CFU/mL, strain ATCC 29212): 8 µg/mL (≈ 5.65 µM)
MIC Enterococcus faecalis (GC 2242) (Enterococcus sp.; inoculum 5×10^5 CFU/mL, strain GC 2242): 8 µg/mL (≈ 5.65 µM)
MIC Enterococcus faecium (GC 2243) (Enterococcus sp.; inoculum 5×10^5 CFU/mL, strain GC 2243): 8 µg/mL (≈ 5.65 µM)
MIC Enterococcus faecalis (GC 2691) (Enterococcus sp.; inoculum 5×10^5 CFU/mL, strain GC 2691): 8 µg/mL (≈ 5.65 µM)
MIC Enterococcus faecalis (GC 3059) (Enterococcus sp.; inoculum 5×10^5 CFU/mL, strain GC 3059): 8 µg/mL (≈ 5.65 µM)
MIC Enterococcus faecalis (GC 4552) (Enterococcus sp.; inoculum 5×10^5 CFU/mL, strain GC 4552): 8 µg/mL (≈ 5.65 µM)
MIC Enterococcus faecalis (GC 4553) (Enterococcus sp.; inoculum 5×10^5 CFU/mL, strain GC 4553): 8 µg/mL (≈ 5.65 µM)
MIC Enterococcus faecalis (GC 4554) (Enterococcus sp.; inoculum 5×10^5 CFU/mL, strain GC 4554): 8 µg/mL (≈ 5.65 µM)
MIC Enterococcus faecium (GC 4556) (Enterococcus sp.; inoculum 5×10^5 CFU/mL, strain GC 4556): 8 µg/mL (≈ 5.65 µM)
MIC Enterococcus faecium (GC 4557) (Enterococcus sp.; inoculum 5×10^5 CFU/mL, strain GC 4557): 4 µg/mL (≈ 2.83 µM)
MIC Enterococcus avium (GC 4558) (Enterococcus sp.; inoculum 5×10^5 CFU/mL, strain GC 4558): 4 µg/mL (≈ 2.83 µM)
MIC Enterococcus faecalis (GC 6189) (Enterococcus sp.; inoculum 5×10^5 CFU/mL, strain GC 6189): 8 µg/mL (≈ 5.65 µM)
MIC Streptococcus agalactiae (GC 4564) (Streptococcus sp.): 1 µg/mL (≈ 0.706 µM)
MIC Streptococcus pneumoniae (ATCC 6301) (Streptococcus sp.): 0.5 µg/mL (≈ 0.353 µM)
MIC Streptococcus pneumoniae (GC 1894) (Streptococcus sp.): <0.06 µg/mL
MIC Streptococcus pneumoniae (GC 4565) (Streptococcus sp.): 0.25 µg/mL (≈ 0.177 µM)
MIC Streptococcus pyogenes (GC 4563) (Streptococcus sp.): 1 µg/mL (≈ 0.706 µM)
MIC Streptococcus pneumoniae (ATCC 6301) (Streptococcus sp.; inoculum 5×10^5 CFU/mL, strain ATCC 6301): 0.5 µg/mL (≈ 0.353 µM)
MIC Streptococcus pneumoniae (GC 1894) (Streptococcus sp.; inoculum 5×10^5 CFU/mL, strain GC 1894): <0.06 µg/mL
MIC Streptococcus pyogenes (GC 4563) (Streptococcus sp.; inoculum 5×10^5 CFU/mL, strain GC 4563): 1 µg/mL (≈ 0.706 µM)
MIC Streptococcus agalactiae (GC 4564) (Streptococcus sp.; inoculum 5×10^5 CFU/mL, strain GC 4564): 1 µg/mL (≈ 0.706 µM)
MIC Streptococcus pneumoniae (GC 4565) (Streptococcus sp.; inoculum 5×10^5 CFU/mL, strain GC 4565): 0.25 µg/mL (≈ 0.177 µM)
MIC Staphylococcus aureus (ATCC 29213) (Staphylococcus sp.; strain ATCC 29213): 2 µg/mL (≈ 1.41 µM)
MIC Staphylococcus aureus (GC 1131) (Staphylococcus sp.; strain GC 1131): 4 µg/mL (≈ 2.83 µM)
MIC Staphylococcus aureus (GC 3051) (Staphylococcus sp.; strain GC 3051): 2 µg/mL (≈ 1.41 µM)
MIC Staphylococcus aureus (GC 3053) (Staphylococcus sp.; strain GC 3053): 4 µg/mL (≈ 2.83 µM)
MIC Staphylococcus aureus (GC 4541) (Staphylococcus sp.; strain GC 4541): 2 µg/mL (≈ 1.41 µM)
MIC Staphylococcus aureus (GC 4542) (Staphylococcus sp.; strain GC 4542): 2 µg/mL (≈ 1.41 µM)
MIC Staphylococcus aureus-SMITH (GC 4543) (Staphylococcus sp.; strain GC 4543): 2 µg/mL (≈ 1.41 µM)
MIC Staphylococcus aureus (GC 4544) (Staphylococcus sp.; strain GC 4544): 4 µg/mL (≈ 2.83 µM)
MIC Staphylococcus aureus (GC 4545) (Staphylococcus sp.; strain GC 4545): 2 µg/mL (≈ 1.41 µM)
MIC Coagulase Negative Staphylococcus (GC 4547) (Staphylococcus sp.; strain GC 4547): 2 µg/mL (≈ 1.41 µM)
MIC Coagulase Negative Staphylococcus (GC 4548) (Staphylococcus sp.; strain GC 4548): 2 µg/mL (≈ 1.41 µM)
MIC Coagulase Negative Staphylococcus (GC 4549) (Staphylococcus sp.; strain GC 4549): 2 µg/mL (≈ 1.41 µM)
MIC Coagulase Negative Staphylococcus (GC 4551) (Staphylococcus sp.; strain GC 4551): 2 µg/mL (≈ 1.41 µM)
MIC Coagulase Negative Staphylococcus (GC 6257) (Staphylococcus sp.; strain GC 6257): 1 µg/mL (≈ 0.706 µM)
Structure (SMILES): CC(c1ccccc1)C1NC(=O)CNC(=O)C(CO)NC(=O)C(C(O)C2CNC(=N)N2C2OC(CO)C(O)C(O)C2O)NC(=O)C(C(O)C2CNC(=N)N2)NC(=O)C(Cc2ccc(OC3OC(CO)C(OC4OC5COC6(OC5C(O)C4O)C4CCCC6CCC4)C(O)C3O)cc2)NC1=O (stereo not shown) [Example 212]
MIC Staphylococcus haemolyticus (GC 4546) (Staphylococcus sp.; strain GC 4546): 2 µg/mL (≈ 1.41 µM)

From patent US6914045B2, “Glycopeptide antibiotics” (Wyeth Holdings Corporation, priority 2001, dated 2005)
